# Test results taken from US11304916B2 (priority 2019, dated 2022).
# Entries after “also recorded” stand apart in the source; their conditions may differ. Read-outs that look alike come from different tables or passages of the source.
# Key:
# STx2-induced cell death = type: cell-based, human
# [1] = system: transport of STx2B to the Golgi apparatus; type: cell-based, human
# [2] = system: pH of endolysosomal compartments; type: cell-based, human
# [3] = system: transport of STx2B to the Golgi apparatus; conditions: cited from earlier work
# [4] = system: transport of STx1 B-subunit (STx1B) to the Golgi; conditions: cited from earlier work
# lethal STx1 toxicosis [5] = conditions: mouse, in vivo; cited from earlier work
# [6] = system: recruitment of retromer component Vps26 to early endosomes; type: cell-based, human
# HeLa cells = conditions: 10 μM
# [7] = system: transport of STx1 B-subunit (STx1B) to the Golgi; type: cell-based, human
# STx1-induced cell death = type: cell-based, human
# LC3-positive punctae = type: cell-based, human
# lethal STx1 toxicosis [8] = conditions: mouse, in vivo
# lethal STx2 toxicosis = conditions: mouse, in vivo
smiles,measurement,setting,value
"CC/C(=C(\c1ccc(O)cc1)c1ccc(OCCN(C)C)cc1)c1ccccc1 [4-hydroxytamoxifen, (Z)-4-(1-(4-(2-(dimethylamino)ethoxy)phenyl)-2-phenylbut-1-en-1-yl)phenol]",Protection against STx2-induced cell death relative to tamoxifen,STx2-induced cell death,A lower level of protection
CO/C1=C\C(C)=C\[C@@H](C)[C@@H](O)[C@@H](C)C/C(C)=C/C=C/[C@H](OC)[C@@H]([C@@H](C)[C@@H](O)[C@H](C)[C@@]2(O)C[C@@H](O)[C@H](C)[C@@H](C(C)C)O2)OC1=O [bafilomycin A1],STx2B transport after short treatment,[1],did not have an effect; also recorded: There were no differences between groups
same,Transport of STx2B to the Golgi apparatus,[1],robustly inhibited the transport of STx2B to the Golgi apparatus
same,Change in endolysosomal pH (Lysosensor signal),[2],a similar effect was observed
same,Morphology of endolysosomal compartments,[2],morphological differences were apparent
CCN(CC)CCCC(C)Nc1ccnc2cc(Cl)ccc12 (stereo not drawn) [chloroquine],Transport of STx2B to the Golgi apparatus,[1],inhibitors of STx2B transport
"CC/C(=C(\c1ccc(O)cc1)c1ccc(OCCNC)cc1)c1ccccc1 [endoxifen, (Z)-4-(1-(4-(2-(methylamino)ethoxy)phenyl)-2-phenylbut-1-en-1-yl)phenol]",Protection against STx2-induced cell death relative to tamoxifen,STx2-induced cell death,substantially weaker than tamoxifen or 4-hydroxytamoxifen
[Mn+2] [manganese],Sensitivity of STx2 transport to manganese (literature),[3],manganese-insensitive
same,Early endosome-to-Golgi transport of STx1 (literature),[4],blocks the early endosome-to-Golgi transport of STx1
same,Protection against lethal STx1-toxicosis (literature),lethal STx1 toxicosis [5],protects cells and mice against lethal STx1-toxicosis
OCCOc1ccc(/C(=C(/CCCl)c2ccccc2)c2ccccc2)cc1 [ospemifene],Transport of STx2B to the Golgi (data not shown),[1],did not
same,Protection against STx2-induced cell death relative to tamoxifen,STx2-induced cell death,failed to protect all together
same,Recruitment of Vps26 to early endosomes,[6],did not
"O=C(c1ccc(OCCN2CCCCC2)cc1)c1c(-c2ccc(O)cc2)sc2cc(O)ccc12 [raloxifene, (6-hydroxy-2-(4-hydroxyphenyl)benzo[b]thiophen-3-yl)(4-(2-(piperidin-1-yl)ethoxy)phenyl)methanone]",Protection against STx2-induced cell death relative to tamoxifen,STx2-induced cell death,provided as much protection as tamoxifen against STx2-induced cell death
same,Cytotoxicity / cell viability of compound by itself,HeLa cells,did not alter cell viability by themselves
"CC/C(=C(\c1ccccc1)c1ccc(OCCN(C)C)cc1)c1ccccc1 [tamoxifen, (Z)-2-(4-(1,2-diphenyl-1-butenyl)phenoxy)-N,N-dimethylethan-1-amine]",Fate of STx2B in treated cells,[1],the toxin failed to traffic to the Golgi and instead was rerouted to Rab7-positive late endosomes and degraded
same,STx2B transport after short treatment,[1],did not have an effect; also recorded: There were no differences between groups
same,Transport of STx2B to the Golgi apparatus,[1],inhibitors of STx2B transport
same,Inhibitory effect on STx2B transport compared with chloroquine,[1]; 24 h,had a greater inhibitory effect
same,Transport of STx1B to the Golgi and STx1B degradation,[7],inhibited the transport of STx1 B-subunit (STx1B) to the Golgi and induced degradation of STx1B
same,Lowest tamoxifen dose at which protection was evident,STx2-induced cell death,2.5 µM
same,Protection against STx2-induced cell death,STx2-induced cell death,~200 fold
same,Protection against STx1-induced cell death,STx1-induced cell death,~50 fold
same,Change in endolysosomal pH (Lysosensor signal),[2],an increase evident at early time-points (30-60 min) but not 24 h after treatment
same,Morphology of endolysosomal compartments,[2],morphological differences were apparent
same,Positioning of early endosomes,[6],gained a perinuclear prominence
same,Recruitment of Vps26 to early endosomes,[6]; 10 μM,enhanced
same,LC3-positive punctae,LC3-positive punctae,elevated
same,"Health until end of experiment, STx1-group",lethal STx1 toxicosis [8],a subset of tamoxifen-treated mice remained healthy until the end of the experiment
same,Survival of STx1-treated mice,lethal STx1 toxicosis [8]; ip,significantly improved the survival
same,Protection against STx2 with additional oral tamoxifen after toxin,lethal STx2 toxicosis,A similar level of protection against STx2
same,"Survival time versus vehicle, STx2",lethal STx2 toxicosis,survived for significantly longer than those that received vehicle
same,Survival of STx2-treated mice,lethal STx2 toxicosis; ip,significantly improved the survival
same,Cytotoxicity / cell viability of compound by itself,HeLa cells,without inducing cytotoxicity
"CN(C)CCOc1ccc(/C(=C(/CCCl)c2ccccc2)c2ccccc2)cc1 [toremifene, (Z)-2-(4-(4-chloro-1,2-diphenylbut-1-en-1-yl)phenoxy)-N,N-dimethylethan-1-amine]",Transport of STx2B to the Golgi (data not shown),[1]; 10 μM,blocked transport of STx2B to the Golgi
same,Protection against STx2-induced cell death relative to tamoxifen,STx2-induced cell death,provided as much protection as tamoxifen against STx2-induced cell death
same,Endolysosomal pH at 30 min (data not shown),"[2]; 10 μM, 30 min",increased endolysosomal pH at 30 min
same,Recruitment of Vps26 to early endosomes,[6]; 10 μM,increased Vps26 levels on early endosomes at 24 h
same,Cytotoxicity / cell viability of compound by itself,HeLa cells,did not alter cell viability by themselves
